# Earlier results in patent publication US20090325918A1, “Synthesis and separation of optically active isomers and cyclopropyl derivatives of spironolactone and their biological action” (priority 2008, published 2009).
# Tests used:
# hypertensive patients = hypertensive patients using spironolactone for therapy; 1% of men in the placebo group
# [1] = system: patients with congestive heart failure (CHF)
structure (smiles),measurement,setting,value
"CC(=O)S[C@@H]1CC2=CC(=O)CC[C@]2(C)[C@H]2CC[C@@]3(C)[C@@H](CC[C@@]34CCC(=O)O4)[C@H]12 [spironolactone, 17-hydroxy-7-alpha-mercapto-3-oxo-17-alpha-pregn-4-ene-21-carboxylic acid gamma-lactone acetate]",Water solubility,,poor
same,"Gynecomastia or tender breast enlargement, occurrence in patients",hypertensive patients,10%
same,Reduction in mortality (risk of death),"[1]; CHF patients taking digoxin and a loop diuretic, spironolactone with digitalis and ACE inhibitor",30%
same,Patients who discontinued treatment because of adverse events,[1]; spironolactone group,8%
same,"Frequency of hospitalization for worsening heart failure, lower than in the placebo group",[1]; spironolactone treated group vs placebo group,35%
